Measurements taken from patent US11952364B2, “TRK inhibitors useful as anticancer drugs” (TYLIGAND BIOSCIENCE (SHANGHAI) LIMITED, priority 2018, dated 2024).
Where two headings read alike, the source gives them in different places.

Experiments:
MKN45 cells = assay: Proliferation of MKN45 cells; format: cell-based; details: Homo sapiens, MKN-45; Table 8
Experimental: MKN45 is a human poorly differentiated gastric cancer cell line with high MET expression. Cell proliferation experiments were performed according to literature methods (Zhang, D. et al. Bioorg. Med. Chem. 2013, 21, 6804; Riss, T. L.; Moravec, R. A.; Niles, A. L.; et al. Cell Viability Assays 2013 May 1 [Updated 2016 Jul. 1]. In: Sittampalam, G. S.; Grossman, A.; Brimacombe, K.; et al., editors. Assay Guidance Manual [Internet]. Bethesda (MD): Eli Lilly & Company and the National Center for Advancing Translational Sciences; 2004-. Available from: https://www.ncbi.nlm.nih.gov/books/NBK144065/).

KM12 cells = assay: Proliferation of KM12 cells (CellTiter-Glo); format: cell-based, human; details: read-out: KM-12, IC50
Source text: KM12 is a human colon cancer cell line in which NTRK1 is highly expressed, and gene fusion occurs with TPM3 to form TPM3-NTRK1. • [Test method]: Promega's CellTiter-Glo® Luminescent Cell Viability Assay kit was used to evaluate the inhibitory activity of the compounds on the proliferation of KM12 cells. • [Instrument]: Spectramax M3 multifunctional microplate reader from Molecular Devices. • [Test materials]: KM12 cell line (ATCC, item number CRL-12496), 96-well transparent flat-bottomed black-walled cell culture plate (Corning, item number #3603), RPMI-1640 media (GE, cat #SH30027.01), Fetal Bovine Serum FBS (Thermo Fisher, cat #10099-141), CellTiter-Glo® Luminescent Cell Viability Assay Kit (Promega, cat #G7572), PBS (Solarbio, cat #P1020), Trypsin (Thermo Fisher, cat #25200072), DMSO (Sigma, cat #D2650). • [Experimental procedure]: When resuscitating KM12 cells, the freezing tube was quickly shaken in a 37° C. water bath to melt within 1 minute. The thawed cell suspension was mixed uniformly with RPMI1640 medium containing 10% FBS, centrifuged at 1000 rpm for 5 minutes, and the supernatant discarded. 5 mL of complete medium (RPMI1640 medium with 10% FBS) was taken to resuspend the cell pellets, charged into a cell culture flask with a bottom area of 25 cm^2, and incubated in a cell incubator at 37° C., 95% humidity and 5% CO2. Cells were allowed to passage when the cell confluence rate reached about 80%. For cell passage, the old medium was discarded, and the cells were washed twice with PBS, and 0.5 mL trypsin was added to digest the cells. Upon dispersing into single cells and exfoliating from the bottom of the cell culture flask, 4.5 mL of new complete medium was added to terminate the digestion. After pipetting the cell suspension evenly, 1/5 of the cell suspension was kept and added with 4 mL of new complete medium, and after pipetting evenly, the cell flask was placed in the cell incubator for further culturing. Cell plating was performed when the cell confluence rate reached about 80% again. For cell plating, 1/5 of the cell suspension was kept for further culturing as in the cell passage method, and the remaining 4/5 of the cell suspension was placed in a 15 mL centrifuge tube, detected for cell viability by Trypan blue exclusion method to ensure that cell viability was above 90%. A cell suspension with a density of 3.33×10^4 viable cells/mL was prepared with complete medium, and 90 μL of such cell suspension was added to a 96-well cell culture plate to obtain a cell density of 3000 viable cells/mL in the cell culture plate. A control group containing no cells, no compound and only complete medium (i.e. culture medium control) and a control group containing no compound but containing cells (i.e. cell control) were set. The cell plate was placed in a cell incubator overnight.
The 10 mM compound stock solution in DMSO was first serially diluted with DMSO at a dilution factor of 3.16 times, to obtain 9 concentrations, and the 10th concentration was set as DMSO control without compound. Then, PBS was used to dilute the DMSO solutions of compounds of different concentrations, at a dilution factor of 100 times, so that the DMSO concentration in the compound solution of each concentration was 1%. Finally, 10 μL of each of the above solutions was added to the corresponding cell culture plate, so that the initial compound concentration was 10 μM, with the remaining concentrations being successively diluted at a dilution factor of 3.16 times, and the DMSO content in the cell culture plate was 0.1%.
The cell plate was placed in a cell incubator and cultured for 72 hours. For endpoint detection, the CellTiter-Glo reagent was melted, and the cell plate was moved to room temperature to equilibrate for 30 minutes, added with 100 μL of CellTiter-Glo for each well, and shaken on an orbital shaker for 5 minutes to fully lyse the cells. […]

[1] = system: Ba/F3 ETV6-NTRK3-G696C cells; assay: Proliferation of Ba/F3 ETV6-NTRK3-G696C cells (CellTiter-Glo); format: cell-based, mouse; details: Mus musculus, BaF3, Table 7-2; separate test; read-out: Ba/F3 ETV6-NTRK3-G696C, IC50
Source text: Ba/F3 ETV6-NTRK3-G696C is a stable transgenic cell line constructed by KYinno Biotechnology Co., Ltd. on mouse primary B cell Ba/F3 wherein NTRK3 is highly expressed with a mutation of G at position […] to C and fused with ETV6 to form ETV6-NTRK3. • [Test method]: Promega's CellTiter-Glo® Luminescent Cell Viability Assay kit was used to evaluate the inhibitory activity of the compounds on the proliferation of Ba/F3 ETV6-NTRK3-G696C cells. • [Instrument]: Spectramax M3 multifunctional microplate reader from Molecular Devices. • [Test materials]: Ba/F3 ETV6-NTRK3-G696C cell line (constructed by KYinno Biotechnology Co., Ltd. (Beijing)), 96-well transparent flat-bottomed black-walled cell culture plate (Corning, cat #3603), RPMI-1640 media (GE, product number #SH30027.01), fetal bovine serum FBS (Thermo Fisher, cat #10099-141), CellTiter-Glo® Luminescent Cell Viability Assay kit (Promega, cat #G7572), PBS (Solarbio, cat #P1020), DMSO (Sigma, cat #D2650). • [Experimental procedure]: When resuscitating Ba/F3 ETV6-NTRK3-G696C cells, • the freezing tube was quickly shaken in a 37° C. water bath to melt within 1 minute. The thawed cell suspension was mixed uniformly with RPMI1640 medium containing 10% FBS, centrifuged at 1000 rpm for 5 minutes, and the supernatant discarded. 5 mL of complete medium (RPMI1640 medium with 10% FBS) was taken to resuspend the cell pellets, charged into a cell culture flask with a bottom area of 25 cm^2, and incubated in a cell incubator at 37° C., 95% humidity and 5% CO2. Cells were allowed to passage when the number of cells reached about 10^6 cells/mL. For cell passage, the old cell suspension was directly pipetted evenly, 1/5 of the cell suspension was kept, 4 mL of new complete medium was added, after pipetting evenly, the cell flask was placed in the cell incubator for further culturing. Cell plating was performed when the number of cells reached about 10^6 cells/mL again. For cell plating, 1/5 of the cell suspension was kept for further culturing as in the cell passage method, and the remaining 4/5 of the cell suspension was placed in a 15 mL centrifuge tube, detected for cell viability by Trypan blue exclusion method to ensure that cell viability was above 90%. A cell suspension with a density of 5.56×10^4 viable cells/mL was prepared with complete medium, and 90 μL of such cell suspension was added to a 96-well cell culture plate to obtain the cell density of 5000 viable cells/mL in the cell culture plate. A control group containing no cells, no compound and only complete medium (i.e. culture medium control) and a control group containing no compound but containing cells (i.e. cell control) were set. The cell plate was placed in a cell incubator overnight. The 10 mM compound stock solution in DMSO was first serially diluted with DMSO at a dilution factor of 3.16 times, to obtain 9 concentrations, and the 10th concentration was set as DMSO control without compound. Then, PBS was used to dilute the DMSO solutions of compounds of different concentrations, at a dilution factor of 100 times, so that the DMSO concentration in the compound solution of each concentration was 1%. Finally, 10 μL of each of the above solutions was added to the corresponding cell culture plate, so that the initial compound concentration was 10 μM, with the remaining concentrations being successively diluted at a dilution factor of 3.16 times, and the DMSO content in the cell culture plate was 0.1%. The cell plate was placed in a cell incubator and cultured for 72 hours. For endpoint detection, the CellTiter-Glo reagent was melted, and the cell plate was moved to room temperature to equilibrate for 30 minutes, added with 100 μL of CellTiter-Glo for each well, and shaken on an orbital shaker for 5 minutes to fully lyse the cells. […]

[2] = Homo sapiens, KM12, Table 1-2, separate test

SMILES | IC50 (KM12 cells; [2]) [nM] | IC50 [1] [nM] | also measured
Cn1ncc2cc(Oc3ccc(NC(=O)c4ccc(OCC(F)(F)F)n(-c5ccc(F)cc5)c4=O)cc3F)c(-c3cn[nH]c3)cc21 [Example 17, N-(3-fluoro-4-(1-methyl-6-(1H-pyrazol-4-yl)-1H-indazol-5-yloxy)phenyl)-1-(4-fluorophenyl)-6-(2,2,2-trifluoroethoxy)-2-oxo-1,2-dihydropyidine-3-carboxamide] | 19 | 3.7 | IC50 (MKN45 cells): 15 nM
CN1CCN(c2ccc(C(=O)Nc3n[nH]c4ccc(Cc5cc(F)cc(F)c5)cc34)c(NC3CCOCC3)c2)CC1 [RXDX-101, reference compound] | – | – | IC50 (KM12 cells; Homo sapiens, KM12, 72 h, Table 1, 72 hours): 5.1 nM
CCn1ncc2cc(Oc3ccc(NC(=O)c4ccc(OC5CC5)n(-c5ccc(F)cc5)c4=O)cc3F)c(-c3cn[nH]c3)cc21 [Example 25, N-(3-fluoro-4-(1-ethyl-6-(1H-pyrazol-4-yl)-1H-indazol-5-yloxy)phenyl)-1-(4-fluorophenyl)-6-cyclopropoxy-2-oxo-1,2-dihydropyridine-3-carboxamide] | 29 | 6.3 | –
N.N.[Cl][Pt][Cl] [Cisplatin, reference compound] | – | – | IC50 (KM12 cells; Table 1, 72 hours): 27300 nM
CCn1ncc2cc(Oc3ccc(NC(=O)c4ccc(OCC(F)(F)F)n(-c5ccc(F)cc5)c4=O)cc3F)c(-c3cn[nH]c3)cc21 [Example 27, N-(3-fluoro-4-(1-ethyl-6-(1H-pyrazol-4-yl)-1H-indazol-5-yloxy)phenyl)-1-(4-fluorophenyl)-6-(2,2,2-trifluoroethoxy)-2-oxo-1,2-dihydropyidine-3-carboxamide] | – | 3 | –
